According to patent US10335048B2, “High-resolution metabolic neuroimaging” (Oregon Health & Science University, priority 2013, dated 2019):

Assays:
[1] = human, in vivo
Description: A 7 T [Tesla] whole-body MRI instrument (Siemens, Erlangen Germany), with quadrature transmission and 24-channel phased-array receive head RF coils, was used. Dynamic measurements employed a single-slice inversion recovery (IR) turboflash technique (Haase A. Snapshot FLASH MRI. Applications to T1, T2, and chemical-shift imaging. Magn. Reson. Med. 1990; 13: 77-89), sampling magnetization eight post-inversion times [TIs]: the inversion pulse was non-selective. […] Gadoteridol [ProHance; Bracco Diagnostics, Inc.] was injected into an antecubital vein catheter at 2.5 mL/s using a power injector [Medrad] to deliver a dose of 28 μmol/kg (typically ^˜5 mL), followed by a 15 mL saline flush at the same rate. […] Parametric R1 maps were calculated on a voxel basis by fitting the signal magnitude at each TI with a full Bloch simulation incorporating all RF pulses and delays. […]
Dynamic measurements were obtained using a single-slice inversion recovery (IR) turboflash technique that sampled magnetization at eight time points post inversion. […] Parametric R1 maps were calculated on a voxel basis by fitting the magnitude signal intensity at each inversion time to a full Bloch simulation that incorporated all RF pulses and delays and modeled the recovery from inversion as a two-parameter single exponential using a gradient expansion algorithm. […]

[2] = human, in vivo, iv; cited from earlier work
human prostate tumor = settings: cited from earlier work
Na+/K+-ATPase = settings: within 15 minutes of direct application to the striatum; cited from earlier work

For `CC(O)CN1CCN(CC(=O)[O-])CCN(CC(=O)[O-])CCN(CC(=O)[O-])CC1.[Gd+3]` (stereo not shown) [GdHPDO3A, gadoteridol], the “maximum K^trans in the lesion center” value [1] was “above 2×10^−3 min^−1”.

For ferumoxytol [Fe-tol], the “plasma t1/2” value [2] is given as 14 h.

For `CC(=O)[13C](=O)O` [[1-^13C]pyruvate], the “[1-13C]pyruvate to [1-13C]lactate conversion rate constant” value (human prostate tumor) is given as 0.045 s⁻¹.

For `C[C@@H]1O[C@@H](O[C@H]2C[C@@H](O)[C@]3(CO)[C@H]4[C@H](O)C[C@]5(C)[C@@H](C6=CC(=O)OC6)CC[C@]5(O)[C@@H]4CC[C@]3(O)C2)[C@H](O)[C@H](O)[C@H]1O` [ouabain], the ADC drop (Na+/K+-ATPase) is given as 40%.
